# Source: patent publication US20040116420A1 (priority 2001, published 2004)
# Tests used:
# HSV-1 protease = target: T1, HSV-1 protease (Human herpesvirus 1, UniProt P10210); assay: Enzymatic assay for HSV-1 protease (assembly) inhibitor, fluorescence polarization; assay type: biochemical; conditions: read-out: HSV-1 Enzyme inhibition IC50
# T1 construct: 6xHis (N); made in house; host or cells: baculovirus expression system
# Method: An enzymatic assay method for an HSV-1 protease (assembly) inhibitor
# The activity of an assembly protease was determined by fluorescence polarization. Biotin-gamma-amino butyrate-[…]-DTAF was used as a fluorescent substrate in accordance with an HSV-1 release and cleavage site. […] Changes in the sizes of fluorescent substrate molecules that increased with the use of avidin as a reaction terminator were assayed by fluorescence polarization.
# The test compound was dissolved in DMF, and the resultant was diluted 5-fold with an assay buffer. 6.5 μl thereof was added to wells of a 96-well plate (a U-bottomed 96-well plate, Coster) that had previously been blocked with a blocking solution (10 mM Tris-HCl (pH 8.0), 150 mM sodium chloride, 0.05% Tween 20, 1 mg/ml of BSA). The enzyme was diluted to 21.3 μg/ml with an assay buffer (1M sodium citrate, 50 mM sodium phosphate (pH 7.4), 100 mM sodium chloride, 20% glycerol, 2 mM TCEP), and 48.5 μl of the resultant was added to each well. The plate was incubated at room temperature for 30 minutes, and 10 μl of 62.5 μg/ml substrate solution was then added to each well. The plate was incubated at room temperature for 60 minutes, and 50 μl of 2 mg/ml avidin phosphate buffer solution (50 mM sodium phosphate, 100 mM sodium chloride (pH 7.4)) was added to each well. The activity was determined in comparison with a compound without protease inhibitor using a microplate reader for fluorescence polarization.
# HSV-1 protease was purified from a vaculovirus that had expressed a DNA construct encoding the reading frame for HSV-1UL26. This construct had further encoded 6 histidine residues at the amino terminus of the protease. These additional histidine residues impart affinity ligands purified by nickel-nitriloacetic acid-agarose (Qiagen). The purified protease was stored as a stock solution for a 20 mM HEPES buffer (pH 8.5, containing 20% v/v glycerin). This stock solution was diluted with an assay buffer and then used in the enzyme reaction.
# In accordance with the cleavage specificity of the HSV-1 protease at the “release site” of the assembled protein, a specific substrate was synthesized (Diianni et al., J. Biol. Chem. 268, 2048 (1993)). This assembly protein-release site had the sequence • HTYLQA*SEKFKMW • , and the substrate used was biotin-gamma-amino butyrate-HTYLQA*SERFRIK-DTAF. This is a standard method for peptide synthesis, for example, as in the a method described in “The Practice of Peptide Synthesis” (Bodansky and Bodansky (1984)). The product was stored as a 2.5 mg/ml stock solution in DMF. The resultant was diluted to 62.5 μg/ml with a phosphate buffer (50 mM sodium phosphate, 100 mM sodium chloride, (pH 7.4)) immediately before its use.
# An assay buffer (1M sodium citrate, 50 mM sodium phosphate (pH 7.4), 100 mM sodium chloride, 20% glycerol, 2 mM TCEP) was used to dilute a stock solution for the enzyme and that for the inhibitor.
# HSV-1 = assay: Antiviral activity, HSV-1 in Vero cells, plaque method; assay type: cell-based; conditions: Human alphaherpesvirus 1, 20 hours, 90% inhibition of plaque formation
# Method: An Assay Method for Antiviral Activity These complementary assay methods examine the capacity of a compound to inhibit the generation of new viruses and to inhibit the toxicity of the compound against the host cell. Toxicity indirectly decreases the generation of viruses. Thus, it is important to simultaneously conduct both assays in order to directly compare the results. The Vero cells were sown on a 96-well plate and then cultured overnight. The culture supernatant was removed, and 100 μl of 2% FBS-DMEM containing 50,000 plaque-forming units (hereinafter abbreviated as “pfu”) of HSV-1 was added. A viral solution was removed and 200 μl of 2% FBS-DMEM comprising a test compound was added. In this case, a substance to which 2% FBS-DMEM not comprising any test compound had been added was determined as a control. These infected cells were incubated in the presence of 5% CO2 at 37° C. for 20 hours, and the medium was once allowed to freeze at −80° C. The culture solution was dissolved, and the amount of viruses in the culture solution was assayed by the plaque method. The concentration of the test compound when it inhibited 90% of plaque formation relative to the control was determined to be EC 90.
# Vero cells = assay: Cytotoxicity, Vero cells, Alamar Blue; assay type: cell-based; conditions: 25 μM, 20 hours
# Method: An Assay Method for Cytotoxicity
# The Vero cells were sown on a 96-well plate and then cultured overnight. The culture supernatant was removed, and 200 μl of 2% FBS-DMEM comprising 25 μM of the test compound was added. In this case, a substance to which 2% FBS-DMEM not comprising any test compound had been added was determined as a control. These cells were incubated in the presence of 5% CO2 at 37° C. for 20 hours. Alamar Blue (20 μl) was added to the cells, and cells were incubated for about 6 hours until the color of the control changed. The ratio of the absorbance was assayed using a microplate reader for absorption, and the value relative to the control was determined to be the ratio of living cells.
# T1 sequence (P10210 1-247): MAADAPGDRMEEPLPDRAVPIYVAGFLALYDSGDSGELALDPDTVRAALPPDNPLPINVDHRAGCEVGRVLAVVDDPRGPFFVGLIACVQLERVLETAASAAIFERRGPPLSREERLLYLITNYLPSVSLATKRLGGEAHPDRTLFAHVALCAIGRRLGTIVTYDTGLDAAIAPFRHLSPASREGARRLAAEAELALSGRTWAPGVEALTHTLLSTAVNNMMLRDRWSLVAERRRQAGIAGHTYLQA
IC50 (HSV-1 protease) [nM],EC90 (HSV-1) [nM],SMILES,Cell viability (% of control) (Vero cells) [%]
900,< 3200,"Cc1c(NC(=O)OC(C)(C)C)ccc2nc(N[C@@H](Cc3ccccc3)C(=O)N(C)CCc3ccncc3)oc(=O)c12 [Compound No.49, (5-Methyl-2-{1S-[methyl-(2-pyridin-4-yl-ethyl)-carbamoyl]-2-phenyl-ethylamino}-4-oxo-4H-benzo[d][1,3]oxazin-6-yl)-carbamic acid tert-butyl ester]",76.0
1300,> 12500,"Cc1c(NC(=O)c2cccc(C(Cl)Cl)c2)ccc2nc(NC(C)(C)C(=O)N(C)CCc3ccccn3)oc(=O)c12 [Compound No.183, 3-Dichloromethyl-N-(5-methyl-2-{1-methyl-1-[methyl-(2-pyridin-2-yl-ethyl)-carbamoyl]-ethylamino}-4-oxo-4H-benzo[d][1,3]oxazin-6-yl)-benzamide]",101.0
1600,> 12500,"Cc1c(NC(=O)OC(C)(C)C)ccc2nc(N3CCCC[C@H]3C(=O)NCc3ccccn3)oc(=O)c12 [Compound No.102, (5-Methyl-4-oxo-2-{2S-[(pyridin-2-ylmethyl)-carbamoyl]-piperidin-1-yl}-4H-benzo[d][1,3]oxazin-6-yl)-carbamic acid tert-butyl ester]",64.4
2700,10700,"Cc1c(NC(=O)OC(C)(C)C)ccc2nc(N3C[C@H](OCc4ccccc4)C[C@H]3C(=O)NCCc3ccccn3)oc(=O)c12 [Compound No.112, {2-[4R-Benzyloxy-2S-(2-pyridin-2-ylethylcarbamoyl)-pyrrolidin-1-yl]-5-methyl-4-oxo-4H-benzo[d][1,3]oxazin-6-yl}-carbamic acid tert-butyl ester]",84.2
1000,3500,"Cc1c(NC(=O)c2ccccc2COC(=O)c2ccccc2)ccc2nc(NC(C)(C)C(=O)N(C)CCc3ccccn3)oc(=O)c12 [Compound No.186, Benzoic acid 2-(5-methyl-2-{1-methyl-1-[methyl-(2-pyridin-2-yl-ethyl)-carbamoyl]-ethylamino}-4-oxo-4H-benzo[d][1,3]oxazin-6-ylcarbamoyl)-benzyl ester]",18.1
3700,≥ 12500,"Cc1c(NC(=O)c2ccc3c(c2)OCO3)ccc2nc(NC(C)(C)C(=O)N(C)CCc3ccccn3)oc(=O)c12 [Compound No.193, Benzo[1,3]dioxol-5-carboxylic acid (5-methyl-2-{1-methyl-1-[methyl-(2-pyridin-2-yl-ethyl)-carbamoyl]-ethylamino}-4-oxo-4H-benzo[d][1,3]oxazin-6-yl)-amide]",67.0
2000,> 12500,"Cc1c(NC(=O)CCl)ccc2nc(NC(C)(C)C(=O)N(C)CCc3ccccn3)oc(=O)c12 [Compound No.189, 2-[6-(2-Chloro-acetylamino)-5-methyl-4-oxo-4H-benzo[d][1,3]oxazin-2-ylamino]-2,N-dimethyl-N-(2-pyridin-2-yl-ethyl)-propionamide]",41.0
1400,6200,"CCOc1ccc(C(=O)Nc2ccc3nc(NC(C)(C)C(=O)N(C)CCc4ccccn4)oc(=O)c3c2C)cc1 [Compound No.164, 4-Ethoxy-N-(5-methyl-2-{1-methyl-1-[methyl-(2-pyridin-2-yl-ethyl)-carbamoyl]-ethylamino}-4-oxo-4H-benzo[d][1,3]oxazin-6-yl)-benzamide]",47.7
1600,3200,"Cc1c(NC(=O)c2cccc(Br)c2)ccc2nc(NC(C)(C)C(=O)N(C)CCc3ccccn3)oc(=O)c12 [Compound No.200, 3-Bromo-N-(5-methyl-2-{1-methyl-1-[methyl-(2-pyridin-2-yl-ethyl)-carbamoyl]-ethylamino}-4-oxo-4H-benzo[d][1,3]oxazin-6-yl)-benzamide]",21.5
4700,> 12500,"CCCCc1ccc(C(=O)NCCC(=O)Nc2ccc3nc(N[C@@H](C)C(=O)N(C)CCc4ccccn4)oc(=O)c3c2C)cc1 [Compound No.217, 4-Butyl-N-[2-(5-methyl-2-{1S-[methyl-(2-pyridin-2-yl-ethyl)-carbamoyl]-ethylamino}-4-oxo-4H-benzo[d][1,3]oxazin-6-ylcarbamoyl)-ethyl]-benzamide]",
300,> 12500,"Cc1c(NC(=O)CCCNC(=O)OCc2ccccc2)ccc2nc(NC(C)(C)C(=O)N(C)CCc3ccccn3)oc(=O)c12 [Compound No.204, [3-(5-Methyl-2-{1-methyl-1-[methyl-(2-pyridin-2-yl-ethyl)-carbamoyl]-ethylamino}-4-oxo-4H-benzo[d][1,3]oxazin-6-ylcarbamoyl)-propyl]-carbamic acid benzyl ester]",
1000,6100,"Cc1c(NC(=O)OC(C)(C)C)ccc2nc(NC3(C(=O)N(C)CCc4ccccn4)CCCCC3)oc(=O)c12 [Compound No.124, (5-Methyl-2-{1-[methyl-(2-pyridin-2-yl-ethyl)-carbamoyl]-cyclohexylamino}-4-oxo-4H-benzo[d][1,3]oxazin-6-yl)-carbamic acid tert-butyl ester]",
1100,> 12500,"Cc1c(NC(=O)CCCNC(=O)OC(C)(C)C)ccc2nc(N[C@@H](C)C(=O)N(C)CCc3ccccn3)oc(=O)c12 [Compound No.207, [3-(5-Methyl-2-{1S-[methyl-(2-pyridin-2-yl-ethyl)-carbamoyl]-ethylamino}-4-oxo-4H-benzo[d][1,3]oxazin-6-ylcarbamoyl)-propyl]-carbamic acid tert-butyl ester]",
200,> 12500,"Cc1c(NC(=O)CCCNC(=O)OCc2ccccc2)ccc2nc(N[C@@H](C)C(=O)N(C)CCc3ccccn3)oc(=O)c12 [Compound No.208, [3-(5-Methyl-2-{1S-[methyl-(2-pyridin-2-yl-ethyl)-carbamoyl]-ethylamino}-4-oxo-4H-benzo[d][1,3]oxazin-6-ylcarbamoyl)-propyl]-carbamic acid benzyl ester]",
900,> 12500,"Cc1c(NC(=O)CCNC(=O)c2cccs2)ccc2nc(NC(C)(C)C(=O)N(C)CCc3ccccn3)oc(=O)c12 [Compound No.209, thiophene-2-carboxylic acid [2-(5-methyl-2-{1-methyl-1-[methyl-(2-pyridin-2-yl-ethyl)-carbamoyl]-ethylamino}-4-oxo-4H-benzo[d][1,3]oxazin-6-ylcarbamoyl)-ethyl]-amide]",
2500,> 20000,"Cc1c(NC(=O)CCNC(=O)OC(C)(C)C)ccc2nc(N[C@@H](C)C(=O)N(C)CCc3ccccn3)oc(=O)c12 [Compound No.205, [2-(5-Methyl-2-{1S-[methyl-(2-pyridin-2-yl-ethyl)-carbamoyl]-ethylamino}-4-oxo-4H-benzo[d][1,3]oxazin-6-ylcarbamoyl)-ethyl]-carbamic acid tert-butyl ester]",
